Results reported in PubChem BioAssay AID1963986 (Molecular Pharmacology Branch, DTP, NCI, 2024).

Test system: 171881-019-R-J1-PDC tumor spheroid viability
Assay: Anticancer human tumor 171881-019-R-J1-PDC patient-derived invasive breast carcinoma cell line growth inhibition [PI3K]
Settings: spheroids with HUVEC and MSC; for IC50: curve of first compound; for viability, T/C: stronger effect = lower value; active = viability on the fitted dose curve at most 10% of control; inactive = the rest
Method in brief: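 Tumor cells were combined with HUVEC and MSCs into spheroids, then dosed with PI3K-inhibitor combinations over half-log ranges capped near clinical Cmax or 10 microM.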
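Also: spheroids exposed to compound for 7 days before viability read.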
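For viability, T/C in this document: 100% = DMSO vehicle-treated spheroids.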

CNC(=O)c1ccc(N2C(=S)N(c3ccc(C#N)c(C(F)(F)F)c3)C(=O)C2(C)C)cc1F + CC(Nc1ncnc2nc[nH]c12)c1cc2cccc(Cl)c2c(=O)n1-c1ccccc1
> 10 µM: IC50 (second compound 0.0316 µM) | IC50 (second compound 0.1 µM) | IC50 (second compound 0.316 µM) | IC50 (second compound 1 µM) | IC50 (second compound 3.16 µM)
4.88 µM: IC50 (second compound 10 µM)
inactive: viability, T/C (second compound 0.0316 µM, first compound 0.0316 µM) 91.6% | viability, T/C (second compound 0.0316 µM, first compound 0.1 µM) 78.6% | viability, T/C (second compound 0.0316 µM, first compound 0.316 µM) 80.1% | viability, T/C (second compound 0.0316 µM, first compound 1 µM) 86.4% | viability, T/C (second compound 0.0316 µM, first compound 3.16 µM) 86.1% | viability, T/C (second compound 0.0316 µM, first compound 10 µM) 71.2% | viability, T/C (second compound 0.1 µM, first compound 0.0316 µM) 88.8% | viability, T/C (second compound 0.1 µM, first compound 0.1 µM) 85.9% | viability, T/C (second compound 0.1 µM, first compound 0.316 µM) 78.5% | viability, T/C (second compound 0.1 µM, first compound 1 µM) 85.6% | viability, T/C (second compound 0.1 µM, first compound 3.16 µM) 83.3% | viability, T/C (second compound 0.1 µM, first compound 10 µM) 69.8% | viability, T/C (second compound 0.316 µM, first compound 0.0316 µM) 92.1% | viability, T/C (second compound 0.316 µM, first compound 0.1 µM) 93.3% | viability, T/C (second compound 0.316 µM, first compound 0.316 µM) 85.3% | viability, T/C (second compound 0.316 µM, first compound 1 µM) 92.4% | viability, T/C (second compound 0.316 µM, first compound 3.16 µM) 77% | viability, T/C (second compound 0.316 µM, first compound 10 µM) 69.9% | viability, T/C (second compound 1 µM, first compound 0.0316 µM) 89.9% | viability, T/C (second compound 1 µM, first compound 0.1 µM) 100% | viability, T/C (second compound 1 µM, first compound 0.316 µM) 85.2% | viability, T/C (second compound 1 µM, first compound 1 µM) 86.9% | viability, T/C (second compound 1 µM, first compound 3.16 µM) 93.1% | viability, T/C (second compound 1 µM, first compound 10 µM) 70.7% | viability, T/C (second compound 3.16 µM, first compound 0.0316 µM) 87.2% | viability, T/C (second compound 3.16 µM, first compound 0.1 µM) 85.9% | viability, T/C (second compound 3.16 µM, first compound 0.316 µM) 83.7% | viability, T/C (second compound 3.16 µM, first compound 1 µM) 80.1% | viability, T/C (second compound 3.16 µM, first compound 3.16 µM) 80.9% | viability, T/C (second compound 3.16 µM, first compound 10 µM) 64.5% | viability, T/C (second compound 10 µM, first compound 0.0316 µM) 61.4% | viability, T/C (second compound 10 µM, first compound 0.1 µM) 58.2% | viability, T/C (second compound 10 µM, first compound 0.316 µM) 60.4% | viability, T/C (second compound 10 µM, first compound 1 µM) 57.2% | viability, T/C (second compound 10 µM, first compound 3.16 µM) 54% | viability, T/C (second compound 10 µM, first compound 10 µM) 43.7%

Cn1cnc2c(F)c(Nc3ccc(Br)cc3Cl)c(C(=O)NOCCO)cc21 + CC(Nc1ncnc2nc[nH]c12)c1cc2cccc(Cl)c2c(=O)n1-c1ccccc1
active: viability, T/C (second compound 3.16 µM, first compound 3 µM) 9.87% | viability, T/C (second compound 10 µM, first compound 3 µM) 4.91%
0.547 µM: IC50 (second compound 0.316 µM)
0.664 µM: IC50 (second compound 0.1 µM)
0.423 µM: IC50 (second compound 1 µM)
0.628 µM: IC50 (second compound 0.0316 µM)
inactive: viability, T/C (second compound 0.0316 µM, first compound 0.00949 µM) 93.5% | viability, T/C (second compound 0.0316 µM, first compound 0.03 µM) 84% | viability, T/C (second compound 0.0316 µM, first compound 0.0949 µM) 89.2% | viability, T/C (second compound 0.0316 µM, first compound 0.3 µM) 63.5% | viability, T/C (second compound 0.0316 µM, first compound 0.949 µM) 42.2% | viability, T/C (second compound 0.0316 µM, first compound 3 µM) 19.5% | viability, T/C (second compound 0.1 µM, first compound 0.00949 µM) 87.3% | viability, T/C (second compound 0.1 µM, first compound 0.03 µM) 84.7% | viability, T/C (second compound 0.1 µM, first compound 0.0949 µM) 75% | viability, T/C (second compound 0.1 µM, first compound 0.3 µM) 70.8% | viability, T/C (second compound 0.1 µM, first compound 0.949 µM) 40.7% | viability, T/C (second compound 0.1 µM, first compound 3 µM) 18.3% | viability, T/C (second compound 0.316 µM, first compound 0.00949 µM) 96.6% | viability, T/C (second compound 0.316 µM, first compound 0.03 µM) 91% | viability, T/C (second compound 0.316 µM, first compound 0.0949 µM) 77.2% | viability, T/C (second compound 0.316 µM, first compound 0.3 µM) 63.2% | viability, T/C (second compound 0.316 µM, first compound 0.949 µM) 38.6% | viability, T/C (second compound 0.316 µM, first compound 3 µM) 17.5% | viability, T/C (second compound 1 µM, first compound 0.00949 µM) 88.9% | viability, T/C (second compound 1 µM, first compound 0.03 µM) 74.4% | viability, T/C (second compound 1 µM, first compound 0.0949 µM) 71.8% | viability, T/C (second compound 1 µM, first compound 0.3 µM) 57.9% | viability, T/C (second compound 1 µM, first compound 0.949 µM) 34.6% | viability, T/C (second compound 1 µM, first compound 3 µM) 15.4% | viability, T/C (second compound 3.16 µM, first compound 0.00949 µM) 74.4% | viability, T/C (second compound 3.16 µM, first compound 0.03 µM) 65.3% | viability, T/C (second compound 3.16 µM, first compound 0.0949 µM) 55.9% | viability, T/C (second compound 3.16 µM, first compound 0.3 µM) 40.5% | viability, T/C (second compound 3.16 µM, first compound 0.949 µM) 25.8% | viability, T/C (second compound 10 µM, first compound 0.00949 µM) 46.2% | viability, T/C (second compound 10 µM, first compound 0.03 µM) 44.2% | viability, T/C (second compound 10 µM, first compound 0.0949 µM) 37.8% | viability, T/C (second compound 10 µM, first compound 0.3 µM) 31.2% | viability, T/C (second compound 10 µM, first compound 0.949 µM) 14.9%
< 0.00949 µM: IC50 (second compound 10 µM)
0.143 µM: IC50 (second compound 3.16 µM)
